The values below come from patent publication US11279691B2, “Substituted pyridine and pyrazine compounds as PDE4 inhibitors” (Dart Neuroscience LLC, priority 2013, dated 2022).

T1 sequence (Q08499 1-673 isoform Q08499-2): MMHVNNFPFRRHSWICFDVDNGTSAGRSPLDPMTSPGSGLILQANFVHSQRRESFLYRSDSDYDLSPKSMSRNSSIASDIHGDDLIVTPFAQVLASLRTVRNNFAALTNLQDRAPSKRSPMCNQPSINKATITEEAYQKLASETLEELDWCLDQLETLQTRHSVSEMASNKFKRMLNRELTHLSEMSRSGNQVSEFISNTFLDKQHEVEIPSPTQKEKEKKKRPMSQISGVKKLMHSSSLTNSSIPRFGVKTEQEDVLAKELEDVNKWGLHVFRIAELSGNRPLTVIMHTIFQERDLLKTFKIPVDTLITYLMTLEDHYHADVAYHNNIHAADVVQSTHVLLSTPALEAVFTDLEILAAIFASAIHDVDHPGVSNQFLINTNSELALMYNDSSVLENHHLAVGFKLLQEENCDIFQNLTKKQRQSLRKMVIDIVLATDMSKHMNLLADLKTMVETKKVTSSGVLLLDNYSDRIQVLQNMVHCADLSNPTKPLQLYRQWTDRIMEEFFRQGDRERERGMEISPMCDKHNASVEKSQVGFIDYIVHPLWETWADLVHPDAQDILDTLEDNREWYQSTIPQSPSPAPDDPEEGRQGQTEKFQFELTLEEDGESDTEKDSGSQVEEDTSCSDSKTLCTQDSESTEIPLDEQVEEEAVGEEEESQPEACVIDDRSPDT

The test addresses T1, PDE4D3 (Homo sapiens, UniProt Q08499).
T1 construct: GST
The test is classed as biochemical. Conditions: GST-tagged PDE4D3, 200 nM FAM-cAMP, 11-point dose-response; read-out: PD4d3 pEC50 (converted).
For `COc1ncc(Cn2nnc(CO)n2)cc1-c1ccc(Cl)c(F)c1` [Example 385, (2-{[5-(4-Chloro-3-fluorophenyl)-6-methoxypyridin-3-yl]methyl}-2H-1,2,3,4-tetrazol-5-yl)methanol], the EC50 is 100 to 1000 nM.

As to `COc1ncc(Cn2nnnc2CO)cc1-c1ccc(Cl)c(F)c1` [Example 386, (1-{[5-(4-Chloro-3-fluorophenyl)-6-methoxypyridin-3-yl]methyl}-1H-1,2,3,4-tetrazol-5-yl)methanol], the EC50 was 1000 to 10000 nM. For `COc1ncc(Cn2nnnc2CO)cc1-c1cccc(Cl)c1` [Example 387, (1-{[5-(3-Chlorophenyl)-6-methoxypyridin-3-yl]methyl}-1H-1,2,3,4-tetrazol-5-yl)methanol] the value was 1000 to 10000 nM; for `COc1ncc(Cn2nnc(CO)n2)cc1-c1cccc(Cl)c1` [Example 388, (2-{[5-(3-Chlorophenyl)-6-methoxypyridin-3-yl]methyl}-2H-1,2,3,4-tetrazol-5-yl)methanol], 100 to 1000 nM. Turning to `COc1ncc(Cc2cnc(N3CCC(O)C3)nc2)cc1-c1cccc(Cl)c1` (stereo not shown) [Example 389, 1-(5-{[5-(3-Chlorophenyl)-6-methoxypyridin-3-yl]methyl}pyrimidin-2-yl)pyrrolidin-3-ol], the EC50 is 100 to 1000 nM.

In the case of `COc1ncc(Cc2cnc(N3CC(O)C3)nc2)cc1-c1cccc(Cl)c1` [Example 390, 1-(5-{[5-(3-Chlorophenyl)-6-methoxypyridin-3-yl]methyl}pyrimidin-2-yl)azetidin-3-ol], the EC50 was 100 to 1000 nM. For `COc1ncc(Cc2cnc(NCCO)nc2)cc1-c1cccc(Cl)c1` [Example 391, 2-[(5-{[5-(3-Chlorophenyl)-6-methoxypyridin-3-yl]methyl}pyrimidin-2-yl)amino]ethan-1-ol] the value was under 100 nM. In the case of `CCOc1ncc(Cn2nnc(C)n2)cc1-c1ccc(F)cc1` [Example 392, 2-Ethoxy-3-(4-fluorophenyl)-5-[(5-methyl-2H-1,2,3,4-tetrazol-2-yl)methyl]pyridine], the EC50 was under 100 nM. Under `CCOc1ncc(Cn2nnc(C)n2)cc1-c1ccc(F)c(F)c1` [Example 393, 3-(3,4-Difluorophenyl)-2-ethoxy-5-[(5-methyl-2H-1,2,3,4-tetrazol-2-yl)methyl]pyridine] stands under 100 nM; under `CCOc1ncc(Cn2nnc(C)n2)cc1-c1ccnc(OC(F)F)c1` [Example 394, 3-[2-(Difluoromethoxy)pyridin-4-yl]-2-ethoxy-5-[(5-methyl-2H-1,2,3,4-tetrazol-2-yl)methyl]pyridine], under 100 nM; under `CCOc1ncc(Cn2nnnc2C)cc1-c1ccc(F)c(F)c1` [Example 395, 3-(3,4-Difluorophenyl)-2-ethoxy-5-[(5-methyl-1H-1,2,3,4-tetrazol-1-yl)methyl]pyridine], under 100 nM. Under `CCOc1ncc(Cn2nnnc2C)cc1-c1ccnc(OC(F)F)c1` [Example 396, 3-[2-(Difluoromethoxy)pyridin-4-yl]-2-ethoxy-5-[(5-methyl-1H-1,2,3,4-tetrazol-1-yl)methyl]pyridine] stands under 100 nM; under `CCOc1ncc(Cn2nnnc2C)cc1-c1ccc(Cl)c(F)c1` [Example 397, 3-(4-Chloro-3-fluorophenyl)-2-ethoxy-5-[(5-methyl-1H-1,2,3,4-tetrazol-1-yl)methyl]pyridine], 100 to 1000 nM; under `CCOc1ncc(Cn2nnnc2C)cc1-c1ccc(F)c(Cl)c1` [Example 398, 3-(3-Chloro-4-fluorophenyl)-2-ethoxy-5-[(5-methyl-1H-1,2,3,4-tetrazol-1-yl)methyl]pyridine], under 100 nM. Take `CCOc1ncc(Cn2nnnc2C)cc1-c1cccc(OC(F)F)c1` [Example 399, 3-[3-(Difluoromethoxy)phenyl]-2-ethoxy-5-[(5-methyl-1H-1,2,3,4-tetrazol-1-yl)methyl]pyridine]: the EC50 is under 100 nM. Under `CCOc1cc(-c2cc(Cn3nnnc3C)cnc2OCC)ccn1` [Example 400, 2-Ethoxy-3-(2-ethoxypyridin-4-yl)-5-[(5-methyl-1H-1,2,3,4-tetrazol-1-yl)methyl]pyridine] stands 100 to 1000 nM. Under `CCOc1cccc(-c2cc(Cn3nnnc3C)cnc2OCC)c1` [Example 401, 2-Ethoxy-3-(3-ethoxyphenyl)-5-[(5-methyl-1H-1,2,3,4-tetrazol-1-yl)methyl]pyridine] stands 100 to 1000 nM.

As for `CCOc1ncc(Cn2nnnc2C)cc1-c1cc(F)cc(OC)c1` [Example 402, 2-Ethoxy-3-(3-fluoro-5-methoxyphenyl)-5-[(5-methyl-1H-1,2,3,4-tetrazol-1-yl)methyl]pyridine], the EC50 is 100 to 1000 nM. Under `CCOc1ncc(Cn2cc(C(F)F)nc2C)nc1-c1cccc(Cl)c1` [Example 403, 3-(3-Chlorophenyl)-5-{[4-(difluoromethyl)-2-methyl-1H-imidazol-1-yl]methyl}-2-ethoxypyrazine] stands 100 to 1000 nM; under `CCOc1cc(-c2cc(Cc3cnc(CO)c(F)c3)cnc2OCC(F)F)ccn1` [Example 404, (5-{[6-(2,2-Difluoroethoxy)-5-(2-ethoxypyridin-4-yl)pyridin-3-yl]methyl}-3-fluoropyridin-2-yl)methanol], under 100 nM.

With `CCOc1ncc(Cc2cnc(CO)c(F)c2)cc1-c1ccnc(OC(F)F)c1` [Example 405, [5-({5-[2-(Difluoromethoxy)pyridin-4-yl]-6-ethoxypyridin-3-yl}methyl)-3-fluoropyridin-2-yl]methanol], the EC50 was under 100 nM. Under `Cc1nc(CO)cn1Cc1cnc(OCC(F)F)c(-c2cccc(Cl)c2)c1` [Example 406, (1-{[5-(3-Chlorophenyl)-6-(2,2-difluoroethoxy)pyridin-3-yl]methyl}-2-methyl-1H-imidazol-4-yl)methanol] stands under 100 nM; under `COc1cc(-c2cc(Cn3cnc(N)n3)cnc2OC)ccc1F` [Example 407, 1-{[5-(4-Fluoro-3-methoxyphenyl)-6-methoxypyridin-3-yl]methyl}-1H-1,2,4-triazol-3-amine], 1000 to 10000 nM; under `CCOC(=O)Cc1ccc(Cc2cnc(OC)c(-c3ccc(F)c(F)c3)c2)cc1` [Intermediate 49, Ethyl 2-(4-{[5-(3,4-difluorophenyl)-6-methoxypyridin-3-yl]methyl}phenyl)acetate], under 100 nM. For `CCOC(=O)Cc1ccc(Cc2cnc(OC)c(-c3cccc(Cl)c3)c2)cc1` [Intermediate 50, Ethyl 2-(4-{[5-(3-chlorophenyl)-6-methoxypyridin-3-yl]methyl}phenyl)acetate] the value was 100 to 1000 nM.
